Reference: the METLIN SMRT retention time set (Domingo-Almenara et al. 2019)

Assay: gradient 5% acetonitrile 3 min, to 50% in 2 min, to 85% in 15 min, held 3 min, 100 µL/min
Conditions: column: Zorbax Extend-C18 2.1 x 50 mm; eluents: water / acetonitrile, 0.1% formic acid
Procedure, shortened: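 Using water and acetonitrile that each contained 0.1% formic acid, mixtures of ~100 pure standards were separated at 100 μL/min on a Zorbax Extend-C18 column (2.1 × 50 mm, 1.8 μm). The HPLC fed a quadrupole time-of-flight mass spectrometer working in positive and negative ionization mode, with dead and dwell volumes of 40 μL and 900 μL. Data were acquired over 3 months. Retention time was read from computationally picked adduct peaks after manual inspection of each.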

RP-LC retention time [s]	SMILES
666	CCn1c(CCNC(=O)c2cc(C)cc(C)c2)nc2cccnc21
675	CC(C)c1ccc(CNC(=O)c2cn3c(n2)CCCC3)cc1
586	COc1ccc2[nH]c(=O)c(CCC(=O)NCCCN3CCCCC3)cc2c1
653	O=C(Nc1ccc(Cl)cc1)c1cccnc1-n1cc(-c2ccncc2)cn1
1050	CC(C)Cc1ccc(S(=O)(=O)NC2CCCN(c3ccc(=O)n(CC4CC4)n3)C2)cc1 (centres undefined)
724	C[C@H](CCC(=O)NCCS(=O)(=O)O)[C@H]1CC[C@H]2[C@@H]3CC[C@@H]4C[C@H](O)CC[C@]4(C)[C@H]3C[C@H](O)[C@]12C
919	COc1cccc(Oc2nccn3c(=O)n(CC(=O)Nc4cccc(C(F)(F)F)c4)nc23)c1
551	CC1(O)C=CC(=O)C=C1
533	CNC(=O)N1CCCN(S(C)(=O)=O)CC1
625	CCc1nccn1Cc1nc(-c2cccc(F)c2)no1
663	Cn1c(=O)c(C(=O)N2CCN(c3ccccn3)CC2)nn(-c2ccc(Cl)cc2)c1=O
855	CCN1C(=O)c2cccnc2Sc2cc(NC(=O)Cc3ccc(C)cc3)ccc21
603	COc1ccc(NC(=O)Cn2c(N3CCCC3)nc(C)cc2=O)cc1
847	CCOC(=O)C(NC(C)=O)(C(=O)OCC)C(C)c1c[nH]c2ccccc12 (centres undefined)
1240	CCCn1cc(C(=O)NCCC(C)C)c(S(=O)(=O)N2CCN(c3ccccc3OCC)CC2)n1
655	CCOC(=O)C1=C(CN2CCc3ccccc3C2)NC(=O)NC1c1cccs1 (centres undefined)
792	O=C(NC1CC1)[C@@H]1C[C@H](Oc2ccccc2)CN1C(=O)CCc1c[nH]c2ccccc12
589	COc1cc(OC)cc(C(=O)NCC2(O)CCOCC2)c1
959	COc1cccc(CNC(=O)C2(C)CCCN(C(=O)Nc3ccc(F)c(Cl)c3)C2)c1 (centres undefined)
673	CCOC(=O)N1CCN(C(=O)C2CCN(c3ncnc4c3oc3ccccc34)CC2)CC1
543	O=C(c1ccsc1)N1CCN(Cc2ccc(=O)n(CC3CC3)c2)CC1
853	CCCCNC(=O)c1cnn(-c2cc(-c3nc(C)no3)ccn2)c1C

RP-LC retention time [s]	SMILES
950	COc1ccc(Br)c(C(=O)Nc2ccc3c(c2)N(C(=O)C2CCCC2)CC3)c1
1040	COc1ccc(Cl)cc1NC(=O)Cn1cccc1-c1nnc(C2CCC2)o1
1020	Cc1ccc(NC(=O)Nc2nccn(-c3cccc(F)c3)c2=O)cc1C
1220	Cc1cc(Cl)ccc1S(=O)(=O)N1CCCC1c1nc(-c2cccc(F)c2)no1 (centres undefined)
1100	CCOc1ccccc1NC(=O)Nc1ccc2c(c1)CCN2S(=O)(=O)c1ccc(C)cc1
1290	Cc1ccc(Sc2nccnc2N2CCC(C(=O)N3CCN(c4ccc(C)cc4)CC3)CC2)cc1
538	CCC(=O)NCc1nc2c(n1CC)CN(S(=O)(=O)c1ccc(Cl)cc1)CC2
687	O=S(=O)(c1ccc2c(c1)CCC2)N1CCCn2nc(-c3ccncc3)cc2C1
627	Cc1cc(C)c2[nH]c3c(c(=O)c2c1)CN(CC(=O)Nc1ccccc1)CC3
725	CN(C)C(=O)c1csc(S(=O)(=O)N2CCC(C(=O)NCc3ccc(F)cc3)CC2)c1
1070	COc1cc(Cn2nc(C)c3cnn(C(C)(C)C)c3c2=O)cc(OC)c1
1130	C#CCOCC1CCCN(S(=O)(=O)c2cc(C)c(Cl)cc2Cl)C1 (centres undefined)
565	O=C(Nc1ccc(Cl)cc1)N1CCc2[nH]cnc2C1c1ccncc1 (centres undefined)
799	O=C(Nc1ccccc1)N[C@H]1C[C@H](C(=O)O)Nc2cc(Cl)cc(Cl)c21
618	CCN(CCCNS(=O)(=O)c1ccc2c(c1)CCCC(=O)N2)c1ccccc1
1340	COc1ccc(-c2noc(Cc3nc(-c4cc(C)c(C)cc4C)cs3)n2)cc1
934	CCc1nc2cc(N3CCCC(C(=O)Nc4ccc(OC)cc4OC)C3)cnc2nc1CC (centres undefined)
759	O=C(NCc1ccccc1F)c1ccc2c(c1)CN(Cc1cccs1)CCO2
563	CCNC(=O)c1cc(N2CCOCC2)nc2ccccc12
922	CCOc1ccc(NS(=O)(=O)c2cc(C(=O)N3CCN(c4ccccc4F)CC3)n[nH]2)cc1
611	O=C(c1ccncc1)N1CCC2(CC1)N=C(c1ccccc1)NO2
612	COCCC(=O)Nc1ccc2c(c1)Sc1ncccc1C(=O)N2C

RP-LC retention time [s]	SMILES
740	COc1ccc(NC(=O)C2CC(=O)N(c3ccc4c(c3)CCN4C(=O)C3CC3)C2)cc1 (centres undefined)
884	CC1(C(=O)NC2CCCCCCC2)CN(S(C)(=O)=O)CC(=O)N1c1ccc(F)cc1 (centres undefined)
731	Cc1ccc(C)c(NC(=O)Cn2cnc3nc(N4CCCC(C(=O)NC(C)C)C4)sc3c2=O)c1 (centres undefined)
618	CC(=O)OCC(=O)NCCCOc1cccc(CN2CCCCC2)c1
1050	Cc1ccc(NC(=O)Cn2nc3c(Oc4ccc(C(C)C)cc4)nccn3c2=O)c(C)c1
1010	O=C(NCc1cccs1)C(=O)c1cccn1Cc1ccc(F)cc1
736	COC(=O)c1cccc(NC(=O)N2C[C@@H]3C[C@H]2C[C@@H]3NC(=O)c2ccccc2)c1
626	CCC(=O)N1CCc2cc(C(=O)NC)ccc21
824	Cn1c(N2CCC(C(=O)N3CCC(Cc4ccccc4)CC3)CC2)cc(=O)n(C)c1=O
1030	O=C(NCc1ccc(F)cc1)c1cc(-c2ccc(F)cc2)ns1
884	O=C(Cn1ccc2ccccc21)N1CCN(c2ccc(F)cc2)CC1
865	COc1ccccc1C(=O)N1CCC2(CC1)N=C(c1ccc(Cl)cc1)NO2
730	CCCn1cc(C(=O)NCCN(C)C)c(S(=O)(=O)N2CCN(c3ccc(Cl)cc3)CC2)n1
1010	CCSc1nc2ccc(NS(=O)(=O)c3ccc(F)cc3)cc2s1
729	CC1(C)CC(=O)c2cn(-c3ccc(F)cc3)c(=O)c(C(=O)N3CCCC3)c2C1
592	COc1cc2c(cc1OC)C(C(=O)NCCCN1CCOCC1)C1c3ccccc3CCN1C2=O (centres undefined)
1040	Cc1ccc(C2Cn3nnc(-c4nc(-c5cccnc5)no4)c3CO2)c(C)c1 (centres undefined)
724	COc1ccc(OC)c(NC(=O)Cn2ncc3c(c2=O)N(C2CC2)C(=O)CS3)c1
860	COC(=O)c1cnc2nc(-c3ccccc3Cl)nn2c1C
684	CCCN1C(=O)c2ccccc2C(C(=O)N2CCOCC2)C1c1cc(OC)c(OC)c(OC)c1 (centres undefined)
1060	Cc1ccc(N2CC(c3noc(-c4cc(F)cc(F)c4)n3)CC2=O)cc1 (centres undefined)
604	Cc1cc(C)n(CC(=O)N2CCN(c3ccccc3O)CC2)n1

RP-LC retention time [s]	SMILES
653	CCCc1noc(-c2cccn3c(CC(=O)N4CCSCC4)nnc23)n1
943	O=S(=O)(Cc1ccccc1)N1CCCCC1c1nc(-c2ccccc2)n[nH]1 (centres undefined)
902	CCOC(=O)COc1cc(-c2ccc(C)cc2)nc2ccc(NC(=O)COc3ccccc3)cc12
643	CN1CCN(C(=O)c2csc(N3CCN(c4ccc(F)cc4)CC3)n2)CC1
1210	CCCn1nnc(NCc2ccc(-c3cc(Cl)cc(Cl)c3)o2)n1
601	COCCn1cc(CC(=O)NC(C)C)c2cccnc21
660	Cn1cnc(S(=O)(=O)N2CCC(C(=O)NCc3ccccc3)CC2)c1
618	N#Cc1cccc(CN2CCCCC2c2nncn2CC2CC2)c1 (centres undefined)
974	O=C(Cn1cnc2c(sc3nc(-c4ccccc4)ccc32)c1=O)Nc1ccc2c(c1)OCO2
577	CC(C)N1CCN(C(=O)c2nc(N3CCSCC3)c3cnn(C)c3n2)CC1
782	CN(CCc1noc(-c2ccc(C(=O)N3CCCCC3)cc2)n1)C(=O)c1ccc(Br)o1
676	O=C(CCc1c(-c2ccc(F)cc2)nc2ccccn12)Nc1cccc(F)c1
739	COc1ccc(N2CCN(C(=O)CC3CCN(C(=O)c4[nH]c(C)cc4C)CC3)CC2)cc1
800	O=C1NC2(CCN(C(=O)Nc3ccccc3Cl)CC2)N=C1c1ccccc1
818	O=C(c1ccc(Cl)cc1Cl)N1CC(c2nc(C3CC3)no2)C1
717	CC(C)CNC(=O)/C=C\C(=O)O
977	Cc1ccc(Cn2nc3ccc(S(=O)(=O)N4CCOCC4)cn3c2=O)cc1
705	COc1ccccc1N1CCN(CCN2C(=O)N=C3C(=Nc4ccccc43)C2=O)CC1
622	CCCN(C)C(=O)C1CCCCc2nnc(C(C)C)n21 (centres undefined)
718	Cc1nc(-c2cc(S(=O)(=O)NCCN3CCC(C)CC3)c(C)s2)sc1C
639	Cn1ccnc1SCC(=O)Nc1nc(-c2ccc(F)cc2)cs1

SMILES	RP-LC retention time [s]
COc1ccc2c(c1)C1(CCN(S(=O)(=O)c3ccc(F)c(F)c3)C1)C(=O)N2C (centres undefined)	964
COc1ccc2c(c1)C1(CCN(C(=O)NC3CCCCC3)C1)C(=O)N2 (centres undefined)	703
